The values that follow come from patent publication US7662607B2, “Chalaropsis lysozyme protein and its method of use in anti-bacterial applications” (New Century Pharmaceuticals, Inc., priority 2003, dated 2010).

In one assay the test system is Staphylococcus cell wall. The experiment in a line: Lysozyme Ch activity, turbidimetric rate determination with Staphylococcus cell wall (absorbance at 600 nm). It is filed as biochemical. To be noted: 50 mM Sodium acetate Buffer, pH 4.8, 25° C. As to the method:
In one example, the Chalaropsis Lysozyme PEGylation was carried out using the steps as follows: (1) 15 mg of Chalaropsis Lysozyme and 1.05 g of Methoxypolyethylene glycol succinimidyl succinate (MPSS) was added into 0.1 M Sodium phosphate buffer to make final volume of 10 ml. (2) The mixture was allowed to shake on a rotator for 120 hours. The mixture was run on a SDS-PAGE to verify PEGylation (FIG. 1). (3) The mixture was concentrated with a YM-10 centriprep to a final volume of 1 ml. (4) The protein was loaded onto a XK16 column packed with Sephacryl S-300 resin. Fractions were collected every 2 min, i.e. 2 mls. (5) The following fractions are run on two gels (FIG. 2 and FIG. 3): • Gel1: MW, 28, 30, 35, 40, 45, 50, 55, 60, 65 • Gel2: MW, 70, 75, 80, 83, 85, 90, 95, 99, 105. (6) Based on the gel, it was decided that fractions around tube 55 was fully PEGylated, and thus fractions 53 to 57 were pooled and concentrated. (7) Activity was tested at 1 mg/ml for both native and PEGylated protein. […] PEGylation of Lysozyme Ch
Lysozyme Ch activity was measured with Staphylococcus cell wall in 50 mM Sodium acetate Buffer, pH 4.8 at 25° C. Absorbance at 600 nm is monitored for the turbidimetric rate determination on an Ultrospec 2000 spectrophotometer (Ref. 2).

Assay [1] relates to Micrococcus lysodeikticus cells. The experiment in a line: HEW Lysozyme activity, turbidimetric rate determination with Micrococcus lysodeikticus cells (absorbance at 450 nm). The assay is classed as biochemical. The conditions noted are these: 50 mM Potassium Phosphate Buffer, pH 6.24, 25° C. As to the method: HEW Lysozyme activity was tested with Micrococcus lysodeikticus cells in 50 mM Potassium Phosphate Buffer, pH 6.24 at 25° C. Absorbance at 450 nm is monitored for the turbidimetric rate determination on an Ultrospec 2000 spectrophotometer (ref).

Regarding “HEW Lysozyme: HEW Lysozyme used as a control”, the “Activity against Staphylococcus cell wall” value with Staphylococcus cell wall was “no activity”. In assay [1], the “Activity with Micrococcus lysodeikticus cells (FIG. 6)” value was “reduces the absorbance in a non-linear way”.

Consider “PEGylated HEW Lysozyme: HEW Lysozyme PEGylated with MPSS as a control experiment, with or without inhibitors”, for which the “Activity with Micrococcus lysodeikticus cells (FIG. 6)” value in assay [1] is reported as “lost its entire activity”.

B1: Lysozyme Ch: Lysozyme from fungus Chalaropsis species, N,O-diacetylmuramidase, corrected sequence SEQ ID NO:1 (protein, listed as Chalaropsis sp.)
chain: TVQGFDISSYQPSVNFAGAYSAGARFVIIKATEGTSYTNPSFSSQYTGATNAGFIRGGYHFAHPGETTGAAQADYFIAHGGGWSGDGITLPGMLDLESEGSNPACWGLSAASMVAWIKAFSDRYHAVTGRYPMLYTNPSWWSSCTGNSNAFVNTNPLVLARYASAPGTIPGGWPYQTIWQNSDAYAYGGDSNIFNGSADNLKKLATG
For B1, the “Activity against Staphylococcus cell wall” value in the assay on Staphylococcus cell wall is “excellent activity”.
